ChEMBL document CHEMBL1201862, “PubChem BioAssay data set” (2004)
Calls of active or inactive are those of the source. Cut-off read from the data, not from the text of the source, for most assays here: actives have a measured EC50 and inactives only a lower limit.

What was measured:
Paired box protein Pax-8 = Paired box protein Pax-8 (Homo sapiens, UniProt Q06710); test: inhibitors of PAX8-driven TPO luciferase reporter, dose response, RMG-I cells, cherry-pick (AID 687027); assay type: functional, cell-based;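 note: luciferase reporter driven by Pax8 target thyroperoxidase promoter measured by SteadyGlo luminescence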
Paired box protein Pax-8, sequence (Q06710 whole entry): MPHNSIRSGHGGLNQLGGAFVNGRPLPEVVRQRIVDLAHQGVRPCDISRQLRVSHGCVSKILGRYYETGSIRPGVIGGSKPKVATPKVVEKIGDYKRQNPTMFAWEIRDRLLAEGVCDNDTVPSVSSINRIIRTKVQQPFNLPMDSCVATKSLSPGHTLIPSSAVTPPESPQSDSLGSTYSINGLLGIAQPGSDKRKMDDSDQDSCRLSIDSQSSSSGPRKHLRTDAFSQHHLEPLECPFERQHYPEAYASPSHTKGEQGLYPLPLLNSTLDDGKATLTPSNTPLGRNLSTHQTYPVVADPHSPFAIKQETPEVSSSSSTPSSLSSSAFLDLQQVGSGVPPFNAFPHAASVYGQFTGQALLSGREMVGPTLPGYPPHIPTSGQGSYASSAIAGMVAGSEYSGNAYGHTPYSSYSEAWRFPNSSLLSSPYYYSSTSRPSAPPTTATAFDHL

INS1 = test: beta cell apoptosis inhibitors, cytokine rescue, dose response, luminescence, retest (AID 449756); assay type: functional, cell-based; settings: Rattus norvegicus;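 note: cell death triggered by IL-1 beta plus TNF-alpha plus IFN-gamma mixture; protective hits raise ATP signal compared with cytokine alone wells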
[1] = target: T1, Heat shock factor protein 1 (Mus musculus, UniProt P38532); test: HSF1 potentiators in luciferase reporter cells, confirmation, cell-based, NIH3T3, luminescence, dose retest (AID 435004); assay type: functional;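 note: stress induced by proteasome inhibitor MG132 added 30 min after compound; luciferase reporter driven by HSF1 response element in NIH3T3 cells; actives raise luminescence as potentiators of the MG132 stress response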
T1 sequence (P38532 whole entry): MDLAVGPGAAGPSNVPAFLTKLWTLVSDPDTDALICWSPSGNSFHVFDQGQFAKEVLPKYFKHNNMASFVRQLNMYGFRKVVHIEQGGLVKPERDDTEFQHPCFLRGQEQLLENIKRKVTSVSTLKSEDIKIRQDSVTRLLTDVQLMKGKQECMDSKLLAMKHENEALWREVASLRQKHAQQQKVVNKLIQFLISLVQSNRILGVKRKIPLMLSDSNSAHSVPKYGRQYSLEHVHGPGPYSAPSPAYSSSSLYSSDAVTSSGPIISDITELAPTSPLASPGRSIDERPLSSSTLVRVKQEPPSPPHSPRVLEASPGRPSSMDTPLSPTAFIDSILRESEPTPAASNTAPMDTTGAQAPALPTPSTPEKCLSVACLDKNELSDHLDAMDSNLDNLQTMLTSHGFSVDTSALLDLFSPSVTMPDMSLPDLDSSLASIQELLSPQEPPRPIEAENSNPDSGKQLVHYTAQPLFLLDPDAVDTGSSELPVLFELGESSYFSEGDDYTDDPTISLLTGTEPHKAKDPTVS

[2] = system: Streptococcus sp. 'group A'; test: growth inhibition of control SK(-) GAS strain, dose response, counter-screen for streptokinase expression inhibitor project, luminescence, kanamycin, BacTiterGlo, confirmation (AID 1900); assay type: functional, organism-based
Streptococcus = test: Group A Streptococcus viability loss, dose response, counter-screen for streptokinase expression inhibitor project, luminescence, BacTiterGlo (AID 1915); assay type: functional, organism-based;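 note: potency for reduction of bacterial viability or growth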
Streptokinase A = target: T2, Streptokinase A (Streptococcus pyogenes serotype M1, UniProt P10520); test: S. pyogenes streptokinase expression inhibitors, potency, dose response, plasminogen activation absorbance, OD405 (AID 1914); assay type: functional, Streptococcus pyogenes M1 GAS;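 note: secreted streptokinase activity via plasminogen activation per viability signal from cell pellet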
T2 sequence (P10520 whole entry): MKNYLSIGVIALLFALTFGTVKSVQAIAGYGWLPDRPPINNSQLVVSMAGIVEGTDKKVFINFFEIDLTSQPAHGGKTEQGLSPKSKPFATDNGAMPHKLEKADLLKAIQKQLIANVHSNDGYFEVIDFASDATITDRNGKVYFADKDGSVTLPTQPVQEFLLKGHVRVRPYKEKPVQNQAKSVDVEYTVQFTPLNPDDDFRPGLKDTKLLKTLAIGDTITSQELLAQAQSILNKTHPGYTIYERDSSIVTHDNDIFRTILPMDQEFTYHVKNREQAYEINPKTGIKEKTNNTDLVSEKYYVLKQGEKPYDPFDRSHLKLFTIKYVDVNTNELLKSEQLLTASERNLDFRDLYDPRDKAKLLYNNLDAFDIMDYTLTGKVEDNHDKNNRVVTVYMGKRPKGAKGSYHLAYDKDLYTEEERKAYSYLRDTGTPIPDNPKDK

[3] = inhibitors of intracellular T. cruzi replication, confirmation, NIH3T3 host cells, beta-gal luminescence (AID 2044); assay type: functional, cell-based;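 note: intracellular parasites grown in NIH/3T3 mouse fibroblasts as host cells; luminescent beta-galactosidase reporter signal from transgenic T. cruzi replicating inside host cells; inhibitors lower the luminescence signal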
[4] = cytotoxicity toward NIH3T3 fibroblasts, dose response, counter-screen, cell-based, ATP luminescence, mouse fibroblasts (AID 2010); assay type: functional;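 note: cells exposed to compound for about 90 hours before reading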
[5] = NIH-3T3 fibroblast cytotoxicity, dose response, cytotoxicity control, cell-based, fluorescence, Alamar Blue, secondary assay (AID 2327); assay type: functional;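 note: NIH-3T3 mouse fibroblasts cultured with fluconazole at 8 µg/mL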
[6] = C. albicans growth with fluconazole, confirmation, fluorescence, retest (AID 2467); assay type: functional, cell-based
cells = assay type: functional
[7] = growth suppression of beta-catenin-knockout colon cells, dose response, cell-based, HCT116, human colon tumor (AID 1045); assay type: functional;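 note: HCT116 colon tumor cells with beta catenin knocked out; cells exposed to compound for 60 hours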
[8] = growth suppression of PTEN-null colon cells, dose response, cell-based, HCT116 PTEN knockout (AID 1047); assay type: functional;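 note: HCT116 colon tumor cells with PTEN knocked out; cells exposed to compound for 60 hours before readout; potency for loss of cell viability measured by luminescence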
[9] = target: T3, Corticotropin-releasing factor receptor 2/Corticotropin-releasing factor-binding protein (Homo sapiens, UniProt P24387+Q13324); test: Dose Response confirmation of uHTS hits for small molecule antagonists of the CRF-binding protein and CRF-R2 receptor complex.; assay type: functional; settings: read-out: IC50_Mean
T3 sequence (Q13324 whole entry): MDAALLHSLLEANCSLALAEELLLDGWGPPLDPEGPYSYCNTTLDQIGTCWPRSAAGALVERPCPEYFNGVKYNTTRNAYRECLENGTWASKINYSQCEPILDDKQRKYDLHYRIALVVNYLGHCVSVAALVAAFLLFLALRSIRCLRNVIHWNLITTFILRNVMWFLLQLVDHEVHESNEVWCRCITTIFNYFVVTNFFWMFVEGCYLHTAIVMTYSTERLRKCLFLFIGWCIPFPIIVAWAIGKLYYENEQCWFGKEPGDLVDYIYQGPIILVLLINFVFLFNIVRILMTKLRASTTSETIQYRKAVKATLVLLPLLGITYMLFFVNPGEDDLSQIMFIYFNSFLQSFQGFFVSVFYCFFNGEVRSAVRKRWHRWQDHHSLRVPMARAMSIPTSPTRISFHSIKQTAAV
T3 sequence (P24387 whole entry): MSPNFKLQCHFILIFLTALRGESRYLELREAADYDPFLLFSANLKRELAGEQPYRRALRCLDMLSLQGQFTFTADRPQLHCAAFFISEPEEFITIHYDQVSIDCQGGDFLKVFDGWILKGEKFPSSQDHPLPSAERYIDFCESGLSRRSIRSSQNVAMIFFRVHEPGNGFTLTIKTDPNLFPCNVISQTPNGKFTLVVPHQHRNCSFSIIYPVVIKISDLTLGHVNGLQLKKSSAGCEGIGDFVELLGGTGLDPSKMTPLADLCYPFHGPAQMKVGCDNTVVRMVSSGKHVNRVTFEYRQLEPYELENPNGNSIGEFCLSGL

[10] = target: T3, Corticotropin-releasing factor receptor 2/Corticotropin-releasing factor-binding protein; test: activators of CRF receptor 2 with binding protein – uHTS hits, confirmation (AID 602473); assay type: functional; settings: read-out: EC50_Mean

Compound: Brc1ccc(-n2cc(-c3ccccc3)c3c(NN4CCOCC4)ncnc32)cc1
- AC50 (Paired box protein Pax-8): 35.8 µM (active)

Compound: CCCCCc1ccc(-c2cn(CN3C(=O)c4ccccc4C3=O)nn2)cc1
- AC50 (INS1): 1.82 µM (active)

Compound: Cc1ccc(=O)n(C(C(=O)NCc2ccco2)C(=O)c2ccc(F)cc2)c1 (configuration not stated)
- EC50 [1]: > 260 µM (inactive)

Compound: CC(=O)c1c(N2CCOCC2)nc2ccc(Br)cc2c1-c1ccccc1
- EC50 [1]: 124 µM (active)

Compound: CCC1CCCCN1C(=O)c1cc(COc2ccc(-n3cncn3)cc2)on1 (configuration not stated)
- AC50 (INS1): 8.64 µM (active)

Compound: C=CCN1C(=O)NC(c2ccccc2)(C(F)(F)F)S/C1=C(\C#N)c1nnc(N2CCOCC2)n1-c1ccccc1 (configuration not stated)
- EC50 [1]: 22.1 µM (active)

Compound: CCn1cc(Cl)c(C(=O)N2N=C(c3ccc4ccccc4c3)CC2c2ccccc2O)n1 (configuration not stated)
- EC50 [2]: 9.18 µM (active)
- EC50 (Streptococcus): > 150 µM (not active)
- EC50 (Streptokinase A): 13 µM (active)
- EC50 [3]: 1.66 µM (active)
- EC50 [4]: > 60 µM (inconclusive)

Compound: COC(=O)C1=NN(C(=O)c2ccc(Cl)cc2)C(O)(c2ccccc2)C1 (configuration not stated)
- EC50 [5]: 29.9 µM (active)
- EC50 [6]: > 38 µM (not active)

Compound: COc1ccc(N(CC(=O)NCCC2=CCCCC2)S(=O)(=O)c2ccccc2)cc1
- EC50 [1]: > 260 µM (inactive)

Compound: O=C1NN(c2ccccc2)C(=O)/C1=C\c1ccc2c(c1)OCO2
- EC50 [1]: > 260 µM (inactive)

Compound: CCOC(=O)CNc1ccc(C(=O)OCC)cc1[N+](=O)[O-]
- IC50 (cells): 13.3 µM (active)

Compound: CC1CCN(c2nc(CN3CCCCC3)nc3scc(-c4ccccc4)c23)CC1
- EC50 [2]: 16.9 µM (active)
- EC50 (Streptococcus): > 150 µM (not active)
- EC50 (Streptokinase A): 19.1 µM (inconclusive)

Compound: COc1ccccc1-c1cc(-c2ccccc2)nc(SC(C(N)=O)c2ccccc2)c1C#N (configuration not stated)
- EC50 [7]: 7.47 µM (active)
- EC50 [8]: 5.97 µM (active)

Compound: COCC(=O)Nc1nc2n(n1)C(c1ccccc1Cl)CC(c1ccc(OC)cc1)N2 (configuration not stated)
- EC50 [5]: > 160 µM (inactive)
- EC50 [6]: > 38 µM (not active)

Compound: COc1ccc(CCn2c(C)cc(C(=O)COC(=O)c3ccc(NC(=O)CC#N)cc3)c2C)cc1
- EC50 [2]: 61.7 µM (active)
- EC50 (Streptococcus): > 150 µM (not active)
- EC50 (Streptokinase A): > 150 µM (not active)

Compound: CCOc1ccccc1NC(=O)N1CCCC(c2nc(O)c3nnn(Cc4ccc(C)cc4)c3n2)C1 (configuration not stated)
- EC50 [7]: 37.4 µM (active)
- EC50 [8]: 33.7 µM (active)

Compound: COc1ccc(Nc2nc(N)nc(CN3CCc4ccccc4C3)n2)cc1
- EC50 [7]: 33.2 µM (active)
- EC50 [8]: 41.9 µM (active)

Compound: COc1ccc(CCNC(=O)c2c(N)n(CCN3CCOCC3)c3nc4ccccc4nc23)cc1
- EC50 [7]: 18.4 µM (active)
- EC50 [8]: 13.4 µM (active)

Compound: CCOC(=O)C1CCN(c2nc3cc(OC)ccc3cc2C#N)CC1
- IC50 [9]: > 47.1 µM (inactive)
- EC50 [10]: > 53 µM (inactive)
- IC50 (cells): 8.59 µM (active)

Compound: CN(C)S(=O)(=O)Oc1cccc(C(=O)Nc2ccc(Cl)cc2)c1
- EC50 [5]: > 160 µM (inactive)
- EC50 [6]: 1.25 µM (active)

Compound: CSc1nc2nccc(-c3ccc(-c4ccccc4)cc3)n2n1
- EC50 [2]: 3.79 µM (active)
- EC50 (Streptococcus): 23.6 µM (active)
- EC50 (Streptokinase A): > 150 µM (not active)

Compound: COc1ccc(NC(=O)Cn2cnc3c(cnn3-c3ccc(C)c(C)c3)c2=O)c(OC)c1
- EC50 [7]: 27.8 µM (active)
- EC50 [8]: 29.5 µM (active)
